PubChem BioAssay AID330 (DTP/NCI, 2004)
“And” between values parts separate entries of the source, which are not always exact repeats. Equal entries are not always repeated. Toxic doses and inconclusive results are not listed.

Tested on: P388 leukemia ip, CD2F1 mice, survival T/C
Assay: NCI In Vivo Anticancer Drug Screen. Data for tumor model P388 Leukemia (intraperitoneal) in CD2F1 (CDF1) mice
Settings: endpoint: median survival time, higher = longer survival
How it was run: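 Mice carrying the transplanted tumor received test compound or vehicle. Survival was recorded in each group, and the value is the treated-group measurement divided by that of the vehicle-treated control group.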

[1] = dose: 100.0 mg/kg/injection, schedule: Q04DX003 (ip), vehicle: Klucel (hydroxypropylcellulose) (HPC)
[2] = dose: 200.0 mg/kg/injection, schedule: Q04DX003 (ip), vehicle: Klucel (hydroxypropylcellulose) (HPC)
[3] = dose: 400.0 mg/kg/injection, schedule: Q04DX003 (ip), vehicle: Klucel (hydroxypropylcellulose) (HPC)
[4] = dose: 50.0 mg/kg/injection, schedule: Q01DX009 (ip), vehicle: saline with Tween-80
[5] = dose: 200.0 mg/kg/injection, schedule: Q01DX009 (ip), vehicle: saline with Tween-80
[6] = dose: 50.0 mg/kg/injection, schedule: Q01DX005 (ip), vehicle: Klucel (hydroxypropylcellulose) (HPC)
[7] = dose: 100.0 mg/kg/injection, schedule: Q01DX005 (ip), vehicle: Klucel (hydroxypropylcellulose) (HPC)
[8] = dose: 200.0 mg/kg/injection, schedule: Q01DX005 (ip), vehicle: Klucel (hydroxypropylcellulose) (HPC)
[9] = dose: 60.0 mg/kg/injection, schedule: Q01DX005 (ip), vehicle: saline with Tween-80
[10] = dose: 120.0 mg/kg/injection, schedule: Q01DX005 (ip), vehicle: saline with Tween-80
[11] = dose: 240.0 mg/kg/injection, schedule: Q01DX005 (ip), vehicle: saline with Tween-80
[12] = dose: 50.0 mg/kg/injection, schedule: Q01DX005 (ip), vehicle: saline
[13] = dose: 100.0 mg/kg/injection, schedule: Q01DX005 (ip), vehicle: saline
[14] = dose: 200.0 mg/kg/injection, schedule: Q01DX005 (ip), vehicle: saline
[15] = dose: 100.0 mg/kg/injection, schedule: Q01DX009 (ip), vehicle: saline with Tween-80
[16] = dose: 12.5 mg/kg/injection, schedule: Q01DX009 (ip), vehicle: saline with Tween-80
[17] = dose: 25.0 mg/kg/injection, schedule: Q01DX009 (ip), vehicle: saline with Tween-80

c1ccc2c(NCCCCCNc3c4ccccc4nc4ccccc34)c3ccccc3nc2c1
T/C (dose: 0.63 mg/kg/injection, schedule: Q01DX009 (ip), vehicle: other): 103 % of control
T/C (dose: 1.25 mg/kg/injection, schedule: Q01DX009 (ip), vehicle: other): 108 % of control
T/C (dose: 2.5 mg/kg/injection, schedule: Q01DX009 (ip), vehicle: other): 100 % of control
T/C (dose: 3.75 mg/kg/injection, schedule: Q01DX009 (ip), vehicle: other): 112 % of control
T/C (dose: 5.0 mg/kg/injection, schedule: Q01DX009 (ip), vehicle: other): 117 % of control
T/C (dose: 10.0 mg/kg/injection, schedule: Q01DX009 (ip), vehicle: other): 122 % of control

C=C1CC2(CCC3C4CC=C5CC(O)CCC5(C)C4CCC32C)OC1=O (stereo not given)
T/C [1]: 104 % of control
T/C [2]: 105 % of control
T/C [3]: 97 % of control

CCCCCC(N)C(C)=O (stereo not given)
T/C (dose: 12.5 mg/kg/injection, schedule: Q01DX009 (ip), vehicle: saline): 110 % of control
T/C (dose: 25.0 mg/kg/injection, schedule: Q01DX009 (ip), vehicle: saline): 106 % of control
T/C [4]: 106 % of control and 97 % of control
T/C (dose: 50.0 mg/kg/injection, schedule: Q01DX009 (ip), vehicle: saline): 105 % of control
T/C [5]: 187 % of control
T/C (dose: 400.0 mg/kg/injection, schedule: Q01DX009 (ip), vehicle: saline with Tween-80): 187 % of control

O=[N+]([O-])c1ccccc1/C=C\c1ccccn1
T/C [6]: 104 % of control
T/C [7]: 101 % of control
T/C [8]: 101 % of control

CCC(COC(=O)c1ccc(N(CC)CC)cc1)NC1CCCCC1 (stereo not given)
T/C [9]: 111 % of control
T/C [10]: 90 % of control

NC(=O)C(F)(F)C(F)(F)C(N)=O
T/C [9]: 107 % of control
T/C [10]: 112 % of control
T/C [11]: 104 % of control

CC1COCCOC(=O)c2cccc(n2)C(=O)OCCOCC(C)O1 (stereo not given)
T/C [1]: 102 % of control
T/C [2]: 95 % of control
T/C [3]: 102 % of control

CCN(CC)CCC(=O)c1ccc(OC)c2ccccc12
T/C [12]: 103 % of control
T/C [13]: 104 % of control
T/C [14]: 103 % of control

NNC(=O)c1cc2ccccc2cc1O
T/C [4]: 99 % of control
T/C [15]: 100 % of control
T/C [5]: 95 % of control

C=C(Cl)C(=NC(C)(C)C)Nc1ccccc1
T/C [6]: 102 % of control
T/C [7]: 92 % of control

CN1C(=O)N(c2cc(Cl)cc(Cl)c2)C(=N)C1=S
T/C (dose: 60.0 mg/kg/injection, schedule: Q01DX005 (ip), vehicle: Klucel + Tween-80): 98 % of control
T/C (dose: 120.0 mg/kg/injection, schedule: Q01DX005 (ip), vehicle: Klucel + Tween-80): 94 % of control

CSC(=S)n1nc(C)c(N=Nc2cccc(C)c2C)c1C
T/C (dose: 100.0 mg/kg/injection, schedule: Q04DX002 (ip), vehicle: Klucel (hydroxypropylcellulose) (HPC)): 96 % of control
T/C (dose: 200.0 mg/kg/injection, schedule: Q04DX002 (ip), vehicle: Klucel (hydroxypropylcellulose) (HPC)): 96 % of control
T/C (dose: 400.0 mg/kg/injection, schedule: Q04DX002 (ip), vehicle: Klucel (hydroxypropylcellulose) (HPC)): 100 % of control

N#CCCCCCCCCCCCCCC1C=CCC1 (stereo not given)
T/C (dose: 100.0 mg/kg/injection, schedule: Q01DX001 (ip), vehicle: saline): 106 % of control
T/C (dose: 200.0 mg/kg/injection, schedule: Q01DX001 (ip), vehicle: saline): 99 % of control
T/C (dose: 400.0 mg/kg/injection, schedule: Q01DX001 (ip), vehicle: saline): 101 % of control

C/C(N)=N/OCc1ccccc1
T/C (dose: 50.0 mg/kg/injection, schedule: Q01DX005 (ip), vehicle: Klucel + Tween-80): 98 % of control
T/C [12]: 92 % of control
T/C (dose: 100.0 mg/kg/injection, schedule: Q01DX005 (ip), vehicle: Klucel + Tween-80): 102 % of control
T/C [13]: 107 % of control
T/C (dose: 200.0 mg/kg/injection, schedule: Q01DX005 (ip), vehicle: Klucel + Tween-80): 102 % of control
T/C [14]: 102 % of control

N#CC1=C(N)CCC1
T/C (dose: 6.25 mg/kg/injection, schedule: Q01DX009 (ip), vehicle: saline with Tween-80): 100 % of control
T/C [16]: 95 % of control

O=c1cc[nH]cc1[N+](=O)[O-]
T/C (dose: 12.5 mg/kg/injection, schedule: Q01DX009 (ip), vehicle: distilled water + Tween-80): 93 % of control
T/C (dose: 25.0 mg/kg/injection, schedule: Q01DX009 (ip), vehicle: distilled water + Tween-80): 98 % of control
T/C [17]: 99 % of control
T/C (dose: 50.0 mg/kg/injection, schedule: Q01DX009 (ip), vehicle: distilled water + Tween-80): 108 % of control
T/C [4]: 98 % of control
T/C (dose: 100.0 mg/kg/injection, schedule: Q01DX009 (ip), vehicle: distilled water + Tween-80): 101 % of control
T/C [15]: 105 % of control
T/C (dose: 100.0 mg/kg/injection, schedule: Q01DX009 (ip), vehicle: saline): 104 % of control and 108 % of control
T/C (dose: 200.0 mg/kg/injection, schedule: Q01DX009 (ip), vehicle: distilled water + Tween-80): 107 % of control
T/C [5]: 104 % of control
T/C (dose: 200.0 mg/kg/injection, schedule: Q01DX009 (ip), vehicle: saline): 100 % of control and 92 % of control

COc1cc(C2N3Cc4ccccc4CN2c2ccccc23)cc(OC)c1OC
T/C (dose: 100.0 mg/kg/injection, schedule: Q01DX001 (ip), vehicle: Klucel (hydroxypropylcellulose) (HPC)): 101 % of control
T/C (dose: 200.0 mg/kg/injection, schedule: Q01DX001 (ip), vehicle: Klucel (hydroxypropylcellulose) (HPC)): 99 % of control
T/C (dose: 400.0 mg/kg/injection, schedule: Q01DX001 (ip), vehicle: Klucel (hydroxypropylcellulose) (HPC)): 102 % of control

CCc1c(OC)c(C#N)c2n(C)c3cc(C)c(C)cc3n2c1=O
T/C [9]: 87 % of control
T/C [10]: 90 % of control
T/C [11]: 93 % of control

CC1(c2ccco2)NC(=O)N(Cl)C1=O (stereo not given)
T/C (dose: 100.0 mg/kg/injection, schedule: Q04DX003 (ip), vehicle: saline): 104 % of control
T/C (dose: 200.0 mg/kg/injection, schedule: Q04DX003 (ip), vehicle: saline): 90 % of control

CCC(O)C(C)C=O (stereo not given)
T/C (dose: 60.0 mg/kg/injection, schedule: Q01DX005 (ip), vehicle: saline): 107 % of control
T/C (dose: 120.0 mg/kg/injection, schedule: Q01DX005 (ip), vehicle: saline): 100 % of control
T/C (dose: 240.0 mg/kg/injection, schedule: Q01DX005 (ip), vehicle: saline): 104 % of control

O=C(O)c1c2c(nc3ccccc13)CCC(C(=O)O)C2 (stereo not given)
T/C [9]: 96 % of control
T/C [10]: 102 % of control
T/C [11]: 96 % of control

COc1ccc(/C=C/c2ccc3ccccc3[n+]2C)cc1
T/C (dose: 11.0 mg/kg/injection, schedule: Q01DX009 (ip), vehicle: saline with Tween-80): 122 % of control
T/C [16]: 124 % of control
T/C [17]: 122 % of control

CCCCCCC1(/C=C\c2ccccc2Cl)OCCO1
T/C (dose: 50.0 mg/kg/injection, schedule: Q01DX009 (ip), vehicle: Klucel (hydroxypropylcellulose) (HPC)): 103 % of control
T/C (dose: 100.0 mg/kg/injection, schedule: Q01DX009 (ip), vehicle: Klucel (hydroxypropylcellulose) (HPC)): 94 % of control
T/C (dose: 200.0 mg/kg/injection, schedule: Q01DX009 (ip), vehicle: Klucel (hydroxypropylcellulose) (HPC)): 108 % of control

CC(NNC(=S)N1CC2CCC(CC2)C1)c1nccc2ccccc12 (stereo not given)
T/C (dose: 12.5 mg/kg/injection, schedule: Q01DX005 (ip), vehicle: saline with Tween-80): 110 % of control
T/C (dose: 25.0 mg/kg/injection, schedule: Q01DX005 (ip), vehicle: saline with Tween-80): 103 % of control
T/C (dose: 50.0 mg/kg/injection, schedule: Q01DX005 (ip), vehicle: saline with Tween-80): 119 % of control

Cc1ccc(C)n1-c1ccsc1C(=O)NNC(=O)C(Cl)(Cl)Cl
T/C (dose: 7.5 mg/kg/injection, schedule: Q01DX005 (ip), vehicle: Klucel (hydroxypropylcellulose) (HPC)): 102 % of control
T/C (dose: 15.0 mg/kg/injection, schedule: Q01DX005 (ip), vehicle: Klucel (hydroxypropylcellulose) (HPC)): 101 % of control
T/C (dose: 30.0 mg/kg/injection, schedule: Q01DX005 (ip), vehicle: Klucel (hydroxypropylcellulose) (HPC)): 111 % of control

COc1cc(/C=C2\N=C(C)OC2=O)ccc1O
T/C [6]: 106 % of control
T/C [7]: 101 % of control
T/C [8]: 104 % of control
